{"source": "ChEMBL document CHEMBL1142085", "about": "“Once-weekly micafungin therapy is as effective as daily therapy for disseminated candidiasis in mice with persistent neutropenia” (Antimicrob Agents Chemother, 2007)", "key": {"Nakaseomyces glabratus [1]": {"system": "Nakaseomyces glabratus", "assay": "Reduction of fungal burden in Candida glabrata infected neutropenic Swiss Webster mouse at 100 mg/kg, ip after 7 days", "type": "functional, organism-based", "parameters": "dose 100 mg/kg"}, "[2]": {"assay": "Serum clearance in Candida glabrata infected neutropenic Swiss Webster mouse", "type": "ADME, organism-based"}, "Nakaseomyces glabratus [3]": {"system": "Nakaseomyces glabratus", "assay": "Reduction of lung fungal burden in Candida glabrata infected ip dosed neutropenic Swiss Webster mouse", "type": "functional"}, "Nakaseomyces glabratus [4]": {"system": "Nakaseomyces glabratus", "assay": "Antifungal activity against Candida glabrata isolated from candidemia patient after 24 hrs", "type": "functional"}, "Nakaseomyces glabratus [5]": {"system": "Nakaseomyces glabratus", "assay": "Reduction of kidney fungal burden in Candida glabrata infected ip dosed neutropenic Swiss Webster mouse", "type": "functional"}, "Nakaseomyces glabratus [6]": {"system": "Nakaseomyces glabratus", "assay": "Reduction of spleen fungal burden in Candida glabrata infected ip dosed neutropenic Swiss Webster mouse", "type": "functional"}, "Nakaseomyces glabratus [7]": {"system": "Nakaseomyces glabratus", "assay": "Reduction of kidney fungal burden in Candida glabrata infected neutropenic Swiss Webster mouse at >=50 mg/kg, ip after 7 days", "type": "functional, organism-based"}, "Nakaseomyces glabratus [8]": {"system": "Nakaseomyces glabratus", "assay": "Antifungal activity against Candida glabrata isolated from candidemia patient after 48 hrs", "type": "functional"}}, "note": "The source made the active and inactive calls. No cut-off for these calls is given here. *1 amine or outer side, *2 acyl side, *3 side chain or, on linkers, in order; H or OH if unused. Where a SMILES comes first, the peptide text is derived from it. Bridges are numbered along the chain shown (N, C = ends). [ ]: non-standard residue; d: D form. The star is where a group is joined. hTyr(3S-OH,4S-OH,3'-OSO3H) = N[C@H](C(=O)O)[C@H](O)[C@@H](O)c1ccc(O)c(OS(=O)(=O)O)c1; Orn(4R-OH,5R-OH) = O=C([C@H](C[C@@H](O)[C@@H](O)N[*:3])N[*:1])[*:2]; Pro(3S-OH,4S-Me) = C[C@H]1CN[C@H](C(=O)O)[C@H]1O; X1 = CCCCCOc1ccc(-c2cc(-c3ccc(C(=O)*)cc3)no2)cc1; Gln(3R-OH) = NC(=O)C[C@@H](O)[C@H](N)C(=O)O; Hyp = O=C(O)[C@@H]1C[C@@H](O)CN1"}
{"smiles": "CCCCCOc1ccc(-c2cc(-c3ccc(C(=O)N[C@H]4C[C@@H](O)[C@@H](O)NC(=O)[C@@H]5[C@@H](O)[C@@H](C)CN5C(=O)[C@H]([C@H](O)CC(N)=O)NC(=O)[C@H]([C@H](O)[C@@H](O)c5ccc(O)c(OS(=O)(=O)O)c5)NC(=O)[C@@H]5C[C@@H](O)CN5C(=O)[C@H]([C@@H](C)O)NC4=O)cc3)no2)cc1", "note": "[MICAFUNGIN] (X1-[Orn(4R-OH,5R-OH)]T[Hyp][hTyr(3S-OH,4S-OH,3'-OSO3H)][Gln(3R-OH)][Pro(3S-OH,4S-Me)]; lactam 1-C)", "values": [{"measurement": "Activity", "setting": "Nakaseomyces glabratus [1]", "value": "Active"}, {"measurement": "clearance", "setting": "[2]", "value": 0.0133, "unit": "mL/min"}, {"measurement": "ED50", "setting": "Nakaseomyces glabratus [3]", "value": 17.3, "unit": "mg/kg"}, {"measurement": "MIC", "setting": "Nakaseomyces glabratus [4]", "value": 0.02, "unit": "mg/L"}, {"measurement": "ED50", "setting": "Nakaseomyces glabratus [5]", "value": 14.7, "unit": "mg/kg"}, {"measurement": "ED50", "setting": "Nakaseomyces glabratus [6]", "value": 7.38, "unit": "mg/kg"}, {"measurement": "Activity", "setting": "Nakaseomyces glabratus [7]", "value": "Active"}, {"measurement": "MIC", "setting": "Nakaseomyces glabratus [8]", "value": 0.02, "unit": "mg/L"}]}
